{"source": "patent US11827628B2", "about": "“Compositions and methods for inhibition of the JAK pathway” (Rigel Pharmaceuticals, Inc., priority 2005, dated 2023)", "system": "up-regulation of ICAM-1 (CD54) by IFNγ in U937 human monocytic cells", "assay": "U937 IFNγ ICAM1 FACS Assay", "format": "cell-based", "settings": "ICAM-1 expression by FACS, read-out: IC50, Example 44", "how_it_was_run": "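U937 cells in 10% FCS RPMI were preincubated 30 min at 37 °C with an 8-point, 3-fold compound dilution series in duplicate, then stimulated with IFNγ for 18–24 h. Surface ICAM-1 was stained with APC anti-ICAM-1 and read by flow cytometry as geometric mean on live-gated cells. EC50 was derived.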", "key": {"[1]": {"settings": "Homo sapiens, U-937, U937 cells stimulated with IFNγ"}, "[2]": {"settings": "U937 cells stimulated with IFNγ"}}, "note": "Where a name gives a salt, the structure may show the parent alone. Read-outs that look alike come from different tables or passages of the source.", "data": [{"smiles": "N#CCCc1ccc(Nc2nc(Nc3cccc(S(N)(=O)=O)c3)ncc2F)cc1F", "note": "[III-18, N2-(3-Aminosulfonylphenyl)-N4-[4-(2-cyanoethyl)-3-fluorophenyl]-5-fluoro-2,4-pyrimidinediamine]", "values": [{"measurement": "IC50", "setting": "[1]", "value": 544, "unit": "nM"}]}, {"smiles": "Cc1cc(Nc2nc(Nc3ccc(C)c(S(N)(=O)=O)c3)ncc2F)ccc1CCC#N", "note": "[III-19, N2-(3-Aminosulfonyl-4-methylphenyl)-N4-[4-(2-cyanoethyl)-3-methylphenyl]-5-fluoro-2,4-pyrimidinediamine]", "values": [{"measurement": "IC50", "setting": "[1]", "value": 55.6, "unit": "nM"}]}, {"smiles": "Cc1cc(Nc2nc(Nc3cccc(S(N)(=O)=O)c3)ncc2F)ccc1CCC#N", "note": "[III-20, N2-(3-Aminosulfonylphenyl)-N4-[4-(2-cyanoethyl)-3-methylphenyl]-5-fluoro-2,4-pyrimidinediamine]", "values": [{"measurement": "IC50", "setting": "[1]", "value": 3330, "unit": "nM"}]}, {"smiles": "Cc1ccc(Nc2ncc(F)c(Nc3ccc(CCC#N)c(Cl)c3)n2)cc1S(N)(=O)=O", "note": "[III-21, N2-(3-Aminosulfonyl-4-methylphenyl)-N4-[3-chloro-4-(2-cyanoethyl)phenyl]-5-fluoro-2,4-pyrimidinediamine]", "values": [{"measurement": "IC50", "setting": "[1]", "value": 339, "unit": "nM"}]}, {"smiles": "N#CCCc1ccc(Nc2nc(Nc3cccc(S(N)(=O)=O)c3)ncc2F)cc1Cl", "note": "[III-22, N2-(3-Aminosulfonylphenyl)-N4-[3-chloro-4-(2-cyanoethyl)phenyl]-5-fluoro-2,4-pyrimidinediamine]", "values": [{"measurement": "IC50", "setting": "[1]", "value": 444, "unit": "nM"}]}, {"smiles": "Cc1ccc(Nc2ncc(F)c(Nc3ccc(CCOC(N)=O)cc3)n2)cc1S(N)(=O)=O", "note": "[III-53, N4-{4-[2-(Aminocarbonyloxy)ethyl]phenyl}-N2-(3-aminosulfonyl-4-methylphenyl)-5-fluoro-2,4-pyrimidinediamine]", "values": [{"measurement": "IC50", "setting": "[1]", "value": 1130, "unit": "nM"}]}, {"smiles": "NC(=O)OCCc1ccc(Nc2nc(Nc3cccc(S(N)(=O)=O)c3)ncc2F)cc1", "note": "[III-54, N4-{4-[2-(Aminocarbonyloxy)ethyl]phenyl}-N2-(3-aminosulfonylphenyl)-5-fluoro-2,4-pyrimidinediamine]", "values": [{"measurement": "IC50", "setting": "[1]", "value": 1590, "unit": "nM"}]}, {"smiles": "CN(C)C(=O)OCCc1ccc(Nc2nc(Nc3cccc(S(N)(=O)=O)c3)ncc2F)cc1", "note": "[III-57, N2-(3-Aminosulfonylphenyl)-N4-{4-[2-(dimethylaminocarbonyloxy)ethyl]phenyl}-5-fluoro-2,4-pyrimidinediamine]", "values": [{"measurement": "IC50", "setting": "[1]", "value": 838, "unit": "nM"}]}, {"smiles": "CNC(=O)OCCc1ccc(Nc2nc(Nc3cccc(S(N)(=O)=O)c3)ncc2F)cc1", "note": "[III-60, N2-(3-Aminosulfonylphenyl)-5-fluoro-N4-{4-[2-(methylaminocarbonyloxy)ethyl]phenyl}-2,4-pyrimidinediamine]", "values": [{"measurement": "IC50", "setting": "[1]", "value": 1010, "unit": "nM"}]}, {"smiles": "COc1ccc(Nc2ncc(F)c(Nc3ccc(Cc4ccncc4)cc3)n2)cc1S(N)(=O)=O", "note": "[III-66, N2-(3-Aminosulfonyl-4-methoxyphenyl)-5-fluoro-N4-[4-(4-pyridinylmethyl)phenyl]-2,4-pyrimidinediamine]", "values": [{"measurement": "IC50", "setting": "[1]", "value": 967, "unit": "nM"}]}, {"smiles": "NS(=O)(=O)c1ccc(Nc2ncc(F)c(Nc3ccc(Cc4ccncc4)cc3)n2)cc1", "note": "[III-71, N2-(4-Aminosulfonylphenyl)-5-fluoro-N4-[4-(4-pyridinylmethyl)phenyl]-2,4-pyrimidinediamine]", "values": [{"measurement": "IC50", "setting": "[1]", "value": 1700, "unit": "nM"}]}, {"smiles": "Cc1ccc(Nc2ncc(F)c(Nc3ccc(Cc4ccncc4)cc3)n2)cc1S(N)(=O)=O", "note": "[III-74, N2-(3-Aminosulfonyl-4-methylphenyl)-5-fluoro-N4-[4-(4-pyridinylmethyl)phenyl]-2,4-pyrimidinediamine]", "values": [{"measurement": "IC50", "setting": "[1]", "value": 935, "unit": "nM"}]}, {"smiles": "NS(=O)(=O)c1cccc(Nc2ncc(F)c(NCCc3ccc(-c4ccncc4)cc3)n2)c1", "note": "[III-76, N2-(3-Aminosulfonylphenyl)-5-fluoro-N4-[4-(4-pyridinyl)phenethyl]-2,4-pyrimidinediamine]", "values": [{"measurement": "IC50", "setting": "[1]", "value": 447, "unit": "nM"}]}, {"smiles": "Cc1ccc(Nc2ncc(F)c(NCCc3ccc(-c4ccncc4)cc3)n2)cc1S(N)(=O)=O", "note": "[III-77, N2-(3-Aminosulfonyl-4-methylphenyl)-5-fluoro-N4-[4-(4-pyridinyl)phenethyl]-2,4-pyrimidinediamine]", "values": [{"measurement": "IC50", "setting": "[1]", "value": 681, "unit": "nM"}]}, {"smiles": "NS(=O)(=O)c1cccc(Nc2ncc(F)c(NCCc3ccc(-n4ccnc4)cc3)n2)c1", "note": "[III-87, N2-(3-Aminosulfonylphenyl)-5-fluoro-N4-[4-(1-imidazolyl)phenethyl]-2,4-pyrimidinediamine]", "values": [{"measurement": "IC50", "setting": "[1]", "value": 2950, "unit": "nM"}]}, {"smiles": "Cc1ccc(Nc2ncc(F)c(NCCc3ccc(-n4ccnc4)cc3)n2)cc1S(N)(=O)=O", "note": "[III-88, N2-(3-Aminosulfonyl-4-methylphenyl)-5-fluoro-N4-[4-(1-imidazolyl)phenethyl]-2,4-pyrimidinediamine]", "values": [{"measurement": "IC50", "setting": "[1]", "value": 2040, "unit": "nM"}]}, {"smiles": "NS(=O)(=O)c1cccc(Nc2ncc(F)c(Nc3ccc(Cn4cncn4)cc3)n2)c1", "note": "[III-100, N2-(3-Aminosulfonylphenyl)-5-fluoro-N4-{4-[1-(1,2,4-thazolyl)methyl]phenyl}-2,4-pyrimidinediamine]", "values": [{"measurement": "IC50", "setting": "[2]", "value": 1910, "unit": "nM"}]}, {"smiles": "NS(=O)(=O)c1cccc(Nc2ncc(F)c(Nc3ccc(CN4CCOCC4)cc3)n2)c1", "note": "[III-103, N2-(3-Aminosulfonylphenyl)-5-fluoro-N4-(4-N-morpholinomethylenephenyl)-2,4-pyrimidinediamine]", "values": [{"measurement": "IC50", "setting": "[2]", "value": 2430, "unit": "nM"}]}, {"smiles": "Cc1ccc(Nc2ncc(F)c(Nc3ccc(CN4CCOCC4)cc3)n2)cc1S(N)(=O)=O", "note": "[III-104, N2-(3-Aminosulfonyl-4-methylphenyl)-5-fluoro-N4-(4-N-morpholinomethylenephenyl)-2,4-pyrimidinediamine]", "values": [{"measurement": "IC50", "setting": "[2]", "value": 2160, "unit": "nM"}]}, {"smiles": "Cc1noc(CCc2ccc(Nc3nc(Nc4cccc(S(N)(=O)=O)c4)ncc3F)cc2)n1", "note": "[III-106, N2-(3-Aminosulfonylphenyl)-5-fluoro-N4-[4-(3-methyl-1,2,4-oxadiazol-5-yl)ethylenephenyl]-2,4-pyrimidinediamine]", "values": [{"measurement": "IC50", "setting": "[2]", "value": 492, "unit": "nM"}]}, {"smiles": "COc1ccc(Nc2ncc(F)c(Nc3ccc(CN4CCSCC4)cc3)n2)cc1S(N)(=O)=O", "note": "[III-109, N2-(3-Aminosulfonyl-4-methyoxyphenyl)-5-fluoro-N4-(4-thiomorpholinomethylenephenyl)-2,4-pyrimidinediamine]", "values": [{"measurement": "IC50", "setting": "[2]", "value": 531, "unit": "nM"}]}, {"smiles": "NS(=O)(=O)c1cccc(Nc2ncc(F)c(Nc3ccc(CN4CCS(=O)(=O)CC4)cc3)n2)c1", "note": "[III-110, N2-(3-Aminosulfonylphenyl)-5-fluoro-N4-{4-[(1,1-dioxothiomorpholin-4-yl-)methyl]phenyl}-2,4-pyrimidinediamine]", "values": [{"measurement": "IC50", "setting": "[2]", "value": 13600, "unit": "nM"}]}, {"smiles": "Cc1ccc(Nc2ncc(F)c(Nc3ccc(CN4CCS(=O)(=O)CC4)cc3)n2)cc1S(N)(=O)=O", "note": "[III-111, N2-(3-Aminosulfonyl-4-methylphenyl)-5-fluoro-N4-{4-[(1,1-dioxothiomorpholin-4-yl-)methyl]phenyl}-2,4-pyrimidinediamine]", "values": [{"measurement": "IC50", "setting": "[2]", "value": 5340, "unit": "nM"}]}, {"smiles": "NS(=O)(=O)c1cccc(Nc2ncc(F)c(Nc3ccc(Cc4ccncc4)cc3)n2)c1", "note": "[III-129, N2-(3-Aminosulfonylphenyl)-5-fluoro-N4-[4-(4-pyridylmethyl)phenyl]-2,4-pyrimidinediamine Methanesulfonic Acid Salt]", "values": [{"measurement": "IC50", "setting": "[2]", "value": 1190, "unit": "nM"}]}, {"smiles": "CNS(=O)(=O)c1cc(Nc2ncc(F)c(Nc3cccc(-c4cnco4)c3)n2)ccc1C", "note": "[IV-4, 5-Fluoro-N2-[3-(N-methylaminosulfony)-4-methylphenyl]-N4-[3-(1,3-oxazol-5-yl)phenyl]-2,4-pyrimidinediamine]", "values": [{"measurement": "IC50", "setting": "[2]", "value": 2420, "unit": "nM"}]}, {"smiles": "CNS(=O)(=O)c1cc(Nc2ncc(F)c(Nc3ccc(-c4cnco4)cc3)n2)ccc1C", "note": "[IV-7, 5-Fluoro-N2-[3-(N-methylaminosulfony)-4-methylphenyl]-N4-[4-(1,3-oxazol-5-yl)phenyl]-2,4-pyrimidinediamine]", "values": [{"measurement": "IC50", "setting": "[2]", "value": 1240, "unit": "nM"}]}, {"smiles": "Cc1cc(Nc2nc(Nc3ccc(S(N)(=O)=O)cc3)ncc2F)cc(C)c1N1CCN(C)CC1", "note": "[IX-44, N2-(4-Aminosulfonylphenyl)-N4-[3,5-dimethyl-4-(4-methylpiperazin-1-yl]phenyl)-5-fluoro-2,4-pyrimidinediamine]", "values": [{"measurement": "IC50", "setting": "[1]", "value": 2940, "unit": "nM"}]}, {"smiles": "COc1ccc(Nc2nc(Nc3cccc(S(=O)(=O)NN4CCC(C)CC4)c3)ncc2F)cc1Cl", "note": "[VI-9, N4-(3-Chloro-4-methoxyphenyl)-5-fluoro-N2-[3-(4-methylpipendin-1-yl)aminosulfonylphenyl]-2,4-pyrimidinediamine]", "values": [{"measurement": "IC50", "setting": "[2]", "value": 14500, "unit": "nM"}]}]}
